Laboratory results: the kinase profiling compilation of Christmann-Franck et al. (2016)

Experiments:
Experiment in all cases: radiometric filter-binding kinase assay
CSK (human) = CSK (human) (UniProt P41240)
MAPK10 (human) = MAPK10 (human) (UniProt P53779)
EPHB1 (human) = EPHB1 (human) (UniProt P54762)
CAMKK2 (human) = CAMKK2 (human) (UniProt Q96RR4)
ULK2 (human) = ULK2 (human) (UniProt Q8IYT8)
IKBKB (human) = IKBKB (human) (UniProt O14920); conditions: compound 1.0 µM
MAP2K1 (human) = MAP2K1 (human) (UniProt Q02750)
Sequence of MAP2K1 (human) (Q02750 whole entry, looked up): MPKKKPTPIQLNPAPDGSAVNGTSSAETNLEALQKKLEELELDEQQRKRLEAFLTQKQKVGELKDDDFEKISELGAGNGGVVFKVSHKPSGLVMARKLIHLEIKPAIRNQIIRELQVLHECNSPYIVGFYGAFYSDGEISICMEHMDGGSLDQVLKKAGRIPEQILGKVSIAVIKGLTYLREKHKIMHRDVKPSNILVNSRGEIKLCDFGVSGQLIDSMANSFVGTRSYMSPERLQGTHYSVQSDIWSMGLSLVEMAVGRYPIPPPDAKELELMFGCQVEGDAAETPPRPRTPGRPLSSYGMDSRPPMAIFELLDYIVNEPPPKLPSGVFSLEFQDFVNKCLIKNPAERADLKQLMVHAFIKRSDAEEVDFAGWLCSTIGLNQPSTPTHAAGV

GSK3B (human) = GSK3B (human) (UniProt P49841)
Sequence of GSK3B (human) (P49841 whole entry, looked up): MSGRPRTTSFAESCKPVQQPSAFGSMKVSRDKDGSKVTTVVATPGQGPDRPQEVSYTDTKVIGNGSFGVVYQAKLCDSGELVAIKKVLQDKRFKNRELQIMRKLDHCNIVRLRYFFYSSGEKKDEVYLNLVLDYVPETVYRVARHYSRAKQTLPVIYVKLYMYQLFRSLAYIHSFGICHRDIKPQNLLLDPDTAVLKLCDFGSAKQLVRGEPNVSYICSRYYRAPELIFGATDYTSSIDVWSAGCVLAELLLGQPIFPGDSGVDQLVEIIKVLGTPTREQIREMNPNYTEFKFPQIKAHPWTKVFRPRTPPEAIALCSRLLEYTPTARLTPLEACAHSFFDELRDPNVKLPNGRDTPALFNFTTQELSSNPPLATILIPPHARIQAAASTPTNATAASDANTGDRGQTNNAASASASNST

GCK (human) = GCK (human) (UniProt Q12851)
PAK4 (human) = PAK4 (human) (UniProt O96013)
CHEK2 (human) = CHEK2 (human) (UniProt O96017)
Sequence of CHEK2 (human) (O96017 whole entry, looked up): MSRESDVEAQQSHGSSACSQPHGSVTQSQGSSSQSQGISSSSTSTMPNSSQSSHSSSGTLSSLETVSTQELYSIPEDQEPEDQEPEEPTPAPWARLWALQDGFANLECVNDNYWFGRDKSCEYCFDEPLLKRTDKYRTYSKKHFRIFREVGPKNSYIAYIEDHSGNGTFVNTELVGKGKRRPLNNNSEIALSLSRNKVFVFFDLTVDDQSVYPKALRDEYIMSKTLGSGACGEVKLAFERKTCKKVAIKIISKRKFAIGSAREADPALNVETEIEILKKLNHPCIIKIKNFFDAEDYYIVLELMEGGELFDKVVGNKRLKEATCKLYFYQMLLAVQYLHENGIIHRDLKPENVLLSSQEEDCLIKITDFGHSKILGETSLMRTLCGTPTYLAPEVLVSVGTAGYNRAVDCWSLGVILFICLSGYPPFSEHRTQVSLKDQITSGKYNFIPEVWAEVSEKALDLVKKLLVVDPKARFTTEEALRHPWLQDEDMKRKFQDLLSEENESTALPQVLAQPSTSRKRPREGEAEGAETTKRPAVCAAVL

SIK2 (human) = SIK2 (human) (UniProt Q9H0K1)
ROCK2 (rat) = conditions: accession and sequence are those of the human protein
CHEK1 (human) = CHEK1 (human) (UniProt O14757)
NEK6 (human) = NEK6 (human) (UniProt Q9HC98)
Sequence of NEK6 (human) (Q9HC98 whole entry, looked up): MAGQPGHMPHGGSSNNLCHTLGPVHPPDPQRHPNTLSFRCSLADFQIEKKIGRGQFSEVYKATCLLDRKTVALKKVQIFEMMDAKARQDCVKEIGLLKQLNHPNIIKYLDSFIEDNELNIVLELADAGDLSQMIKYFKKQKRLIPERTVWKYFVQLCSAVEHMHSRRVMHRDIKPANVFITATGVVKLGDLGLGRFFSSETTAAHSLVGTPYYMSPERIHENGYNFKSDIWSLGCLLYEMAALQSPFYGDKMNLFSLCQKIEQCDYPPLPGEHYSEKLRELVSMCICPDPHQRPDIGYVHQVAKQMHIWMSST

MAPKAPK2 (human) = MAPKAPK2 (human) (UniProt P49137)
WNK1 (human) = WNK1 (human) (UniProt Q9H4A3)
Sequence of WNK1 (human) (Q9H4A3 whole entry, looked up): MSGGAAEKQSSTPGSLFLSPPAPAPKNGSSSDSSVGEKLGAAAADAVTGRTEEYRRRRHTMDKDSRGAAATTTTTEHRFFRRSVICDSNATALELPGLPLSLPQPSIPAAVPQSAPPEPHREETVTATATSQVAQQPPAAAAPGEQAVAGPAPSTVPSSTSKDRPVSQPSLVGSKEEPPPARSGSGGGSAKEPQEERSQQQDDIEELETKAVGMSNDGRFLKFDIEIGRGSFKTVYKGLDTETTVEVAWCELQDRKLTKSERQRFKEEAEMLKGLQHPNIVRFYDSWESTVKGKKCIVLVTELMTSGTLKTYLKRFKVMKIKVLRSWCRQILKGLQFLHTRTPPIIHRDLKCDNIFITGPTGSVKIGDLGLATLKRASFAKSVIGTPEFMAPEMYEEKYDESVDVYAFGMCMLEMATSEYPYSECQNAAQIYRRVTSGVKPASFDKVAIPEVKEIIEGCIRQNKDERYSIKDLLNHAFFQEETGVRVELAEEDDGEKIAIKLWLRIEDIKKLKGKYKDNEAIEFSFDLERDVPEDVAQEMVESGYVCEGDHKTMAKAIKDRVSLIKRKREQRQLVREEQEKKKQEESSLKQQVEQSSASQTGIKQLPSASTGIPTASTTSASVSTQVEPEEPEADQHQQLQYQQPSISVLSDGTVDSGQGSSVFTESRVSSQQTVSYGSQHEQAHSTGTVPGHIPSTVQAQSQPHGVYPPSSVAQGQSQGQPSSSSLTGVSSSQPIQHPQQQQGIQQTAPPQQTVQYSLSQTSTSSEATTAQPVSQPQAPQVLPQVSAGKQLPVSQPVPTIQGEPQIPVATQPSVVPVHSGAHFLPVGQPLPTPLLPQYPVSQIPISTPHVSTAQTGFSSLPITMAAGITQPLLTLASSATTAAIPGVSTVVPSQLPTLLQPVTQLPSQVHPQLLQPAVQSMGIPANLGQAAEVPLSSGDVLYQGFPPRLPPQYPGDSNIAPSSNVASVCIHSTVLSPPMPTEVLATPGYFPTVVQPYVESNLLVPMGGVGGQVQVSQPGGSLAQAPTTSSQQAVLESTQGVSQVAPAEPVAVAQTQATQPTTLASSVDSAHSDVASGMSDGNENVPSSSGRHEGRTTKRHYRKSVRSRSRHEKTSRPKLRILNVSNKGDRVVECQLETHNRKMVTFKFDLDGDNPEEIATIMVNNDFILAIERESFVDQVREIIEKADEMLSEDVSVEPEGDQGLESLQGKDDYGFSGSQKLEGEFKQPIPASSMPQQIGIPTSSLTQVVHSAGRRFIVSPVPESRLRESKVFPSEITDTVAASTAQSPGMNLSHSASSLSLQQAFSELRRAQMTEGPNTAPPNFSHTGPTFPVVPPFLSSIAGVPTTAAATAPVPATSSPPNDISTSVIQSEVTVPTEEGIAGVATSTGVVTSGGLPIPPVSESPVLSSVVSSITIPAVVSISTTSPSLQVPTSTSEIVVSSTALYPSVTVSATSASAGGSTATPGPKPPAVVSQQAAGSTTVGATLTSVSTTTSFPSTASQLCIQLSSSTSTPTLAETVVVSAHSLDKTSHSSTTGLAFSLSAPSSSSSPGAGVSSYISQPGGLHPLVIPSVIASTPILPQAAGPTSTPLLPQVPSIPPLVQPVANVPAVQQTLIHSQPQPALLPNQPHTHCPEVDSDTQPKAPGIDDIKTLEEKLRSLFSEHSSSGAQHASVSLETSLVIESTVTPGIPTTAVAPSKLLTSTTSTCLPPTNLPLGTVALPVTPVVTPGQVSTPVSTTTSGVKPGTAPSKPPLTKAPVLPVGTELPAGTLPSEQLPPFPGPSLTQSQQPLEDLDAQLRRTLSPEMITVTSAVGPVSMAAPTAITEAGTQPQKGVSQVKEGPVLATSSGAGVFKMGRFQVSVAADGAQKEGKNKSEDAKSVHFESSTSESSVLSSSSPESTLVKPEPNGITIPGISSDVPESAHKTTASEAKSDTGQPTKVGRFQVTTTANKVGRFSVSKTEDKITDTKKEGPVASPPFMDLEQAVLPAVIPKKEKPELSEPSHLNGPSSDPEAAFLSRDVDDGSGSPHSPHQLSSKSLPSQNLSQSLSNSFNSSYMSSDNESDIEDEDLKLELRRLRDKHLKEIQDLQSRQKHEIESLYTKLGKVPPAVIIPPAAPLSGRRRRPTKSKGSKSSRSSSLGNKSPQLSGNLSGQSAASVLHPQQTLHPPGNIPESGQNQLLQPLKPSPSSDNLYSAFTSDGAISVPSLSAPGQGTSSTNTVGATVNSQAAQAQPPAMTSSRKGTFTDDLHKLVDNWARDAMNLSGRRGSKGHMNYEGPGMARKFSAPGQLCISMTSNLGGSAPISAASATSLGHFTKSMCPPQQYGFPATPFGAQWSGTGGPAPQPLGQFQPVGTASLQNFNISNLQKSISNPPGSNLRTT

[1] = tested on: PAK2 (human), Q13177 [T402E]
PAK7 (human) = PAK7 (human) (UniProt Q9P286); conditions: compound 1.0 µM
[2] = tested on: OXSR1 (human), O95747 [T185E]
STK3 (human) = STK3 (human) (UniProt Q13188)
MARK2 (human) = MARK2 (human) (UniProt Q7KZI7)
LCK (mouse) = conditions: accession and sequence are those of the human protein
DYRK3 (human) = DYRK3 (human) (UniProt O43781)
PKN2 (human) = PKN2 (human) (UniProt Q16513)
EIF2AK3 (human) = EIF2AK3 (human) (UniProt Q9NZJ5)
PAK6 (human) = PAK6 (human) (UniProt Q9NQU5)
MAP2K6 (human) = MAP2K6 (human) (UniProt P52564)
[3] = tested on: AKT2 (human), P31751 [S474D]
TSSK1B (human) = TSSK1B (human) (UniProt Q9BXA7)
IKBKE (human) = IKBKE (human) (UniProt Q14164)
MAPKAPK5 (human) = MAPKAPK5 (human) (UniProt Q8IW41)
NEK2 (human) = NEK2 (human) (UniProt P51955)

Sequence of ULK2 (human) (Q8IYT8 whole entry, looked up): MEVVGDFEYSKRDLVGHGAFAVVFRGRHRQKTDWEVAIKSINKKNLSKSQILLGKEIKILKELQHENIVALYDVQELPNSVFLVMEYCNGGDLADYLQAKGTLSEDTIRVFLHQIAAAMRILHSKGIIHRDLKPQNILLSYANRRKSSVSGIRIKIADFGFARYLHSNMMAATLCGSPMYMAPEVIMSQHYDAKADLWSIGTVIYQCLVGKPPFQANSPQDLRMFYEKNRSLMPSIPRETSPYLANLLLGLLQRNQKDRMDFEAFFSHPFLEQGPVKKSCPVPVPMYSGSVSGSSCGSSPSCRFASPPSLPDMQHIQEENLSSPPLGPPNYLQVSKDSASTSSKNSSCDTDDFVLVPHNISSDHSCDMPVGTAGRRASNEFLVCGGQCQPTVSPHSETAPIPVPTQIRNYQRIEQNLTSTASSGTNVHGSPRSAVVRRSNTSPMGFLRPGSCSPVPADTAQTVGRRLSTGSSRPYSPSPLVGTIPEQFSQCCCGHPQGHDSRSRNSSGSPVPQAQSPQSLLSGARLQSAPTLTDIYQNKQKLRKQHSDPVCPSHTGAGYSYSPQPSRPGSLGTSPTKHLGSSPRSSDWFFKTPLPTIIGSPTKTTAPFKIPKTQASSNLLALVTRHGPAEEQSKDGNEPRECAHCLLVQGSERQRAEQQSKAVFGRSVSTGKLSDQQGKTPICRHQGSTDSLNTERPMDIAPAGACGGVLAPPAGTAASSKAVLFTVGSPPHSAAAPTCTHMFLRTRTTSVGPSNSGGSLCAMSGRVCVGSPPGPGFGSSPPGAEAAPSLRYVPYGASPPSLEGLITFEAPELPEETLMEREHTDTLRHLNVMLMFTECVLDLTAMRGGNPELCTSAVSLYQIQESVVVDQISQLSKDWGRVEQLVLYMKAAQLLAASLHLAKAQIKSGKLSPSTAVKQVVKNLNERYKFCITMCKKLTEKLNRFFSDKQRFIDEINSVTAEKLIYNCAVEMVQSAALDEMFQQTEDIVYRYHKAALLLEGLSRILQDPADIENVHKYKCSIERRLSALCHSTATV

`CNc1nc(Nc2ccc(C(=O)N3CCOCC3)cc2OC)ncc1Cl` showed a residual activity (CSK (human); compound 1.0 µM) of 97%, a residual activity (CSK (human); compound 10.0 µM) of 103% and a residual activity (MAPK10 (human); compound 1.0 µM) of 60%. It also gave a residual activity (MAPK10 (human); compound 10.0 µM) of 29%, a residual activity (EPHB1 (human); compound 1.0 µM) of 115% and a residual activity (EPHB1 (human); compound 10.0 µM) of 86%. For the same compound, the residual activity (CAMKK2 (human); compound 1.0 µM) was 52%, the residual activity (CAMKK2 (human); compound 10.0 µM) was 31% and the residual activity (ULK2 (human); compound 1.0 µM) was 97%. It also gave a residual activity (ULK2 (human); compound 10.0 µM) of 84%, a residual activity (IKBKB (human)) of 82% and a residual activity (MAP2K1 (human); compound 1.0 µM) of 106%. It also gave a residual activity (MAP2K1 (human); compound 10.0 µM) of 93%, a residual activity (GSK3B (human); compound 1.0 µM) of 100% and a residual activity (GSK3B (human); compound 10.0 µM) of 98%. The residual activity (GCK (human); compound 1.0 µM) was 108%, the residual activity (GCK (human); compound 10.0 µM) was 79% and the residual activity (PAK4 (human); compound 1.0 µM) was 87%. For the same compound, the residual activity (PAK4 (human); compound 10.0 µM) was 84%, the residual activity (CHEK2 (human); compound 1.0 µM) was 52% and the residual activity (CHEK2 (human); compound 10.0 µM) was 96%. It also gave a residual activity (SIK2 (human); compound 1.0 µM) of 49%, a residual activity (SIK2 (human); compound 10.0 µM) of 47% and a residual activity (ROCK2 (rat); compound 1.0 µM) of 87%. The residual activity (ROCK2 (rat); compound 10.0 µM) was 71%, the residual activity (CHEK1 (human); compound 1.0 µM) was 65% and the residual activity (CHEK1 (human); compound 10.0 µM) was 45%. For the same compound, the residual activity (NEK6 (human); compound 1.0 µM) was 73%, the residual activity (NEK6 (human); compound 10.0 µM) was 69% and the residual activity (MAPKAPK2 (human); compound 1.0 µM) was 88%. For the same compound, the residual activity (MAPKAPK2 (human); compound 10.0 µM) was 102%, the residual activity (WNK1 (human); compound 1.0 µM) was 62% and the residual activity (WNK1 (human); compound 10.0 µM) was 99%. It also gave a residual activity ([1]; compound 1.0 µM) of 97%, a residual activity ([1]; compound 10.0 µM) of 105% and a residual activity (PAK7 (human)) of 88%. It also gave a residual activity ([2]; compound 1.0 µM) of 108%, a residual activity ([2]; compound 10.0 µM) of 82% and a residual activity (STK3 (human); compound 1.0 µM) of 85%. The residual activity (STK3 (human); compound 10.0 µM) was 73%, the residual activity (MARK2 (human); compound 1.0 µM) was 85% and the residual activity (MARK2 (human); compound 10.0 µM) was 90%. It also gave a residual activity (LCK (mouse); compound 1.0 µM) of 92%, a residual activity (LCK (mouse); compound 10.0 µM) of 95% and a residual activity (DYRK3 (human); compound 1.0 µM) of 84%. For the same compound, the residual activity (DYRK3 (human); compound 10.0 µM) was 76%, the residual activity (PKN2 (human); compound 1.0 µM) was 102% and the residual activity (PKN2 (human); compound 10.0 µM) was 92%. It also gave a residual activity (EIF2AK3 (human); compound 1.0 µM) of 99%, a residual activity (EIF2AK3 (human); compound 10.0 µM) of 97% and a residual activity (PAK6 (human); compound 1.0 µM) of 90%. The residual activity (PAK6 (human); compound 10.0 µM) was 98%, the residual activity (MAP2K6 (human); compound 1.0 µM) was 74% and the residual activity (MAP2K6 (human); compound 10.0 µM) was 65%. The residual activity ([3]; compound 1.0 µM) was 95%, the residual activity ([3]; compound 10.0 µM) was 64% and the residual activity (TSSK1B (human); compound 1.0 µM) was 51%. It also gave a residual activity (TSSK1B (human); compound 10.0 µM) of 19%, a residual activity (IKBKE (human); compound 1.0 µM) of 77% and a residual activity (IKBKE (human); compound 10.0 µM) of 75%. The residual activity (MAPKAPK5 (human); compound 1.0 µM) was 91%, the residual activity (MAPKAPK5 (human); compound 10.0 µM) was 44% and the residual activity (NEK2 (human); compound 1.0 µM) was 63%. The residual activity (NEK2 (human); compound 10.0 µM) was 90%.
